Legend:
Assay type in all cases: cell-based
[1] = molecular target: CRAC channel (Homo sapiens, UniProt Q13586); assay: CRAC channel activity by Fura-2 fluorescence in Jurkat cells after thapsigargin; parameters: endogenous in cells; host or cells: Jurkat cells
Method: Ratiometric imaging of intracellular Ca^2+ using fura-2 was as described (see, Zhou et al., 2009 above). Briefly, cells on coverslips, in cation safe solution (107 mM NaCl, 7.2 mM KCl, 1.2 mM MgCl2, 11.5 mM glucose, 20 mM HEPES-NaOH, pH 7.2) were loaded with fura-2 acetoxymethyl ester (2 μM) for 30 min at 24° C. Cells were washed and fluorescent probe was allowed to de-esterify for 30 min. From signal remaining after saponin permeabilization, ˜85% of the dye was confined to the cytoplasm (see, Ma H-T, Patterson R L. van Rossum D B. Birnbaumer L, Mikoshiba K, Gill D L, “Requirement of the inositol trisphosphate receptor for activation of store-operated Ca^2+ channels”, Science, Vol. 287, pages 1647-1651, 2000). Ca^2+ measurements were made using a Leica DMI 6000B fluorescence microscope controlled by Slidebook Software. Fluorescence emission at 505 nm was monitored while alternating between 340 and 380 nm excitation wavelengths at a frequency of 0.67 Hz; intracellular Ca^2+ measurements are shown as 340/380 nm emission ratios obtained from groups (35-45) of single cells. Measurements shown are representative a minimum of three independent experiments.
N-(3,4-dibromophenyl)propanamide]. Jurkat cells, a T cell line that is very sensitive to DCPA, was cultured with the indicated compounds, DCPA, DBPA, and ethanol (EtOH). CRAC channel activity was monitored using Fura-2 fluorescence using standard known techniques. Cells were incubated in each composition at 100 uM for 10 minutes prior to addition of the SERCA inhibitor thapsigargin (Tg) to induce SOCe. Decreased CRAC channel activity is clearly evident with DCPA and DBPA.
Jurkat cells, a T cell line that is very sensitive to DCPA, was cultured with the indicated compositions of the present invention, namely, DNI, NM Propanil, and DNMNI. CRAC channel activity was monitored using Fura-2 fluorescence using standard known techniques. Cells were incubated in each composition at 100 uM for 10 minutes prior to addition of the SERCA inhibitor thapsigargin (Tg) to induce SOCe. Decreased CRAC channel activity is clearly evident with each of the compositions of the present invention. […] Each of the compositions of this invention achieve the results achieved with the known DCPA but without the burden of toxicity of DCPA that would accompany further metabolism of DCPA.

[2] = system: store-operated Ca2+ entry (SOCe); assay: Store-operated Ca2+ entry (SOCe) in human osteoclasts; conditions: n=3; data not shown
Method: Human monocytes were isolated from normal buffy coat cells (60-80 ml) obtained with approval of institutional review boards by separation from donor blood, the white-cell depleted blood retained for clinical use. Human monocyte culture and differentiation were as reported (see, Yaroslayskly B B, Zhang Y, Kalla S E, Garcia P V, Sharrow A C, Li Y, Zaidi M, Wu C, Blair H C, “NO-dependent osteoclast motility: Reliance on cGMP-dependent protein kinase I and VASP”, J Cell Sci I, Vol. 18, pages 5479-5487, 2005). […]
Ratiometric imaging of intracellular Ca^2+ using fura-2 was as described (see, Zhou et al., 2009 above). […] Ca^2+ measurements were made using a Leica DMI 6000B fluorescence microscope controlled by Slidebook Software. Fluorescence emission at 505 nm was monitored while alternating between 340 and 380 nm excitation wavelengths at a frequency of 0.67 Hz; intracellular Ca^2+ measurements are shown as 340/380 nm emission ratios obtained from groups (35-45) of single cells. […]
The haloanilide DCPA blocks store-operated Ca^2+ channel function in Jurkat cells with no effect on ER Ca^2+ content. […] To address this, the present inventor examined HEK293 cells stably expressing Orai I and transiently transfected with YFP-STIMI and measured the effect of DCPA on CRAC current or Icrac. […]

[3] = molecular target: T1, STIM I/Orai I interaction (Homo sapiens, UniProt Q13586); assay: 2-APB-induced STIM I ct translocation to plasma membrane; conditions: DCPA 100 μM, 2-APB 50 μM
T1 construct: the cytosolic fragment of STIM I (STIM 1 ct); expressed in transfected cells
T1 sequence (Q13586 235-685 limits assumed): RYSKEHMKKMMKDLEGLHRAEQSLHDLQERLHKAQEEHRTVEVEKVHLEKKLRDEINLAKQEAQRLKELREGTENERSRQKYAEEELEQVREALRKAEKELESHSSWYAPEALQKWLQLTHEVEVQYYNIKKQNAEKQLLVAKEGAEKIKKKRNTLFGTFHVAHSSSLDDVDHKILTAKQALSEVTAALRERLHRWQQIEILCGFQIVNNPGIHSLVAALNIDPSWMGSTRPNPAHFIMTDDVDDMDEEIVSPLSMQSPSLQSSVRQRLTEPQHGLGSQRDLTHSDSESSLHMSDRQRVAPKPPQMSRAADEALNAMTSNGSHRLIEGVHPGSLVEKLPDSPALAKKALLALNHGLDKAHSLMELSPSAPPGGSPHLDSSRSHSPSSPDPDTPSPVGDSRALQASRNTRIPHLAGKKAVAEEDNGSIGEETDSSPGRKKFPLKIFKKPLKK
Method: HEK293 cells, maintained in DMEM with 10% FBS, were transfected with YFP-STIM I using Lipofectamine 2000 (Invitrogen, Carlsbad, Calif.) for 5 h (37° C.; 5% CO2) followed by a 24-h recovery. Cells were placed in 140 mM NaCl, 5 mM KCl, 1 mM MgCl2, 10 mM glucose, 15 mM HEPES, 0.1% BSA, 2 mM CaCl2 and analyzed by confocal microscopy for STIM I puncta formation using a Nikon phase-fluorescence microscope with CCD detectors (Diagnostic instruments, Sterling Heights, Mich.). Phase or transmitted light microscopy used 10-40× objectives and red, green, and blue filters to assemble color images. Fluorescence images used 1.4 NA 40× oil objectives. Red fluorescence used excitation at 530-560 nm, a 575 nm dichroic minor, and 580-650 nm emission filter. Transfection data were analyzed using Nikon NIS Elements Imaging Software. The effect of DCPA on STIM I/Orai I association was determined in wild-type HEK293 cells transfected with STIM I-YFP as described in Wang Y, Deng X, Zhou Y, Hendron E, Mancarelia S, Ritchie M F, Tang X D, Baba Y, Kurosaki T, Mori Y, Soboloff J, Gill DL, “STIM protein coupling in the activation of Orai channels”, Proc Natl Acad Sci USA, Vol. 106, pages 7391-7396, 2009. Experiments were performed on a Leica DMI 6000B fluorescence microscope controlled by Slidebook Software (Intelligent Imaging Innovations, Denver, Colo.).

Sequence of CRAC channel (Q13586 23-685): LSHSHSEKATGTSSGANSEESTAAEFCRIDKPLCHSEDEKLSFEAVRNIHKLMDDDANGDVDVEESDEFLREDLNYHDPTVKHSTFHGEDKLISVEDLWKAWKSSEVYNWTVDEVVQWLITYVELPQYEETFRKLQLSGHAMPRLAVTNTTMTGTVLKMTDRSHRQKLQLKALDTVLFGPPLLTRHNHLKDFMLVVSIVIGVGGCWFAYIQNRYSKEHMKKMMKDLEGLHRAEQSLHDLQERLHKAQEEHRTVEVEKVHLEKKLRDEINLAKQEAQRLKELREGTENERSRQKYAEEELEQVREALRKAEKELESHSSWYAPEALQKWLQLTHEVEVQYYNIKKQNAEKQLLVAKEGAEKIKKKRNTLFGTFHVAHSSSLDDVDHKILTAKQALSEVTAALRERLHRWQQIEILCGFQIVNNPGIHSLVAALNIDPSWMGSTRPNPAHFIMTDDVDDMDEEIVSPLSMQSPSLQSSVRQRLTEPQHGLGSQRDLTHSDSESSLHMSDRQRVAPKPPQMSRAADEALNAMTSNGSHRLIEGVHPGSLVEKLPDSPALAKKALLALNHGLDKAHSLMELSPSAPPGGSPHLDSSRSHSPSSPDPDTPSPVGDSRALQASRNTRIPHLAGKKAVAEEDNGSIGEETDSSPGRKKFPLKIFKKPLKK

## CCC(=O)Nc1ccc(Cl)c(Cl)c1 [DCPA, N-(3,4-dichlorophenyl)propanamide]
[1]
  effect on ER Ca2+ content: no effect
  store-operated Ca2+ channel function: blocks
[1]; 100 uM, 10 minutes before thapsigargin
  CRAC channel activity: Decreased
[2]
  reduction of SOCe in osteoclasts: 27.5%
[3]
  ability of 2-APB to induce STIM I ct translocation to the plasma membrane: dramatically attenuated

— US10682320B2, “Method for inhibiting osteoclast development” (West Virginia University, priority 2012, dated 2020)
